Series [1] has as its system RAW264.7. In words: Antiinflammatory activity against LPS-stimulated mouse RAW264.7 cells assessed as inhibition of LPS-induced TNFalpha production by measuring TNFalpha level at 50 uM preincubated for 2 hrs followed by LPS treatment and measured after 16 hrs by ELISA (reference value: 100 +/- 0.45%). The series is classed as functional.
In series [2] the test system is RAW264.7. Description: Cytotoxicity against mouse RAW264.7 cells at 50 uM after 24 hrs by MTT assay. It is filed as cell-based. The settings on record: raw264.7, 24 h.
Series [3] has as its system RAW264.7. Description: Antiinflammatory activity against LPS-stimulated mouse RAW264.7 cells assessed as inhibition of LPS-induced IL-6 production by measuring IL-6 level at 50 uM preincubated for 2 hrs followed by LPS treatment and measured after 16 hrs by ELISA (reference value: 100 +/- 1.33%). It is filed as functional. Further details: scale not given: the % may be the effect or the level left. (An ELISA detects its analyte on a solid surface through an enzyme-linked reagent.)

Series [4] has as its system RAW264.7. In words: Cytotoxicity against mouse RAW264.7 cells at 50 uM after 24 hrs in presence of 1 ug/ml LPS by MTT assay. It is filed as cell-based. The settings on record: raw264.7, 24 h. Background: Tetrazolium dyes change colour on reduction, which living cells bring about.

The structures appear in SMILES notation. Activity calls are given as the source filed them. The calls are words filed in the database; no cut-off is given here.

Take `N#C[C@@H]1N2CCC[C@H]3CN4C(=O)CCC[C@@H]4[C@H]([C@H]32)[C@@H]2O[C@]12[C@H]1CC[C@H]2CN3C(=O)CCC[C@@H]3[C@H]3CCCN1[C@@H]23`: in series [1], the “TNFalpha level (% of LPS control)” value was 50.05%. Further, the values for the Activity result in series [2], in series [3] and in series [4] were “Non-Toxic”, 52.87% and “Non-Toxic”, respectively.

As to `O=C1CCC[C@@H]2[C@H]3CCCN[C@H]3[C@H](CCC[C@H]3C[C@H]4CN5C(=O)CCC[C@@H]5[C@H]5CCCN(C3)[C@@H]45)CN12`, in series [1], the “TNFalpha level (% of LPS control)” value is 69.14%. Further, the Activity result in series [2] and in series [4] was “Non-Toxic” each time. The outcome in series [3] was inactive.

`O=C1CCC[C@@H]2[C@H]3CCCN4CCC[C@@H](CN12)[C@@H]34` [MATRINE]: the “TNFalpha level (% of LPS control)” value in series [1] is reported as 72.48%. Besides, the Activity in series [3] was determined as 65.49%.

With `N#C[C@H]1N2CCC[C@H]3[C@@H]2[C@H](CN2C(=O)CCC[C@H]32)[C@H]2O[C@]21[C@@H]1CC[C@H]2[C@@H]3[C@@H](CCCN31)CN1C(=O)CCC[C@H]21`, the “TNFalpha level (% of LPS control)” value in series [1] is given as 96.64%. Besides, the figures for the Activity entry in series [2], in series [3] and in series [4] were “Non-Toxic”, 67.85% and “Non-Toxic”, respectively.

As for `O=C1CCC[C@@H]2[C@H]3CCCN4CC([C@@H]5CC[C@H]6[C@@H]7[C@@H](CCCN75)CN5C(=O)CCC[C@H]65)=C[C@@H](CN12)[C@@H]34`, the “TNFalpha level (% of LPS control)” value in series [1] is recorded as 70.86%. In addition, the Activity entry in series [2] is given as “Non-Toxic”; in series [3], 60.08%; in series [4], “Non-Toxic”.

Regarding `O=C1CCC[C@@H]2[C@H]3CC([C@H]4CC[C@H]5CN6C(=O)CCC[C@@H]6[C@H]6CCCN4[C@@H]56)=CN4CCC[C@@H](CN12)[C@@H]34`, in series [1], the “TNFalpha level (% of LPS control)” value came to 49.59%. The Activity entry was “Non-Toxic” in series [2], 73.9% in series [3] and “Non-Toxic” in series [4].
